Measurements as given in US10208078B1 (SHAANXI UNIVERSITY OF SCIENCE AND TECHNOLOGY, priority 2018, dated 2019).

Experiment: DPPH radical scavenging activity assay
Assay type: biochemical
Parameters: Scavenging activity (%): unit of the concentration uncertain
Conditions: for Scavenging activity (%): 0.2 mmol/L DPPH, 30 minutes room temperature in dark, absorbance at 517 nm
From the text: 2,2-Diphenyl-1-picryl hydrazyl (DPPH) is an organic compound composed of a stable organic radical. In the DPPH molecule, due to the presence of multiple electron-withdrawing —NO2 and large π bonds of the benzene ring, nitrogen free radical is stabilized. Its methanol solution is purple and has a maximum absorption peak at 517 nm. After the addition of an antioxidant, DPPH captures an electron to be paired with the free electron, and the purple fades and turns into a yellow substance. The absorption at 517 nm disappears, and the degree of fading is quantitatively related to the number of electrons it captures. Based on this principle, a spectrophotometer is used to detect the change of the absorbance of the DPPH radical and the sample solution, and the ability of the sample to provide hydrogen atoms and scavenge free radicals can be measured.
Preparation of DPPH solution: measuring exact amount of 2,2-diphenyl-1-picryl hydrazyl (DPPH) and dissolving in methanol to prepare a 0.2 mmol/L DPPH solution, stored at 0° C. in dark.
Measuring the scavenging activity of the sample solutions:
2 mL of the sample solutions at each concentration gradient was taken, 2 mL 0.2 mmol/L DPPH solution was added, the mixture was mixed and reacted at room temperature in dark for 30 minutes, and methanol was then added to adjust final volume. The absorbance Ai was measured at 517 nm. 2 mL control solution and 2 mL methanol were mixed, and the absorbance Aj was measured. 2 mL DPPH solution and 2 mL methanol were mixed, and the absorbance A0 was measured. The scavenging activity of the sample solution and control solutions is calculated according to the following calculation formula. Scavenging activity (%)=100×[1−(Ai−Aj)/A0]
In FIG. 1, the X axis represents the concentrations (PPM) of the sample and control solutions, and the Y axis represents the scavenging activity.

[1] = concentration 6.89 (unit uncertain)
[2] = concentration 68.9 (unit uncertain)
[3] = concentration 172 (unit uncertain)
[4] = concentration 689 (unit uncertain)
[5] = concentration 1724 (unit uncertain)
[6] = concentration 6890 (unit uncertain)
[7] = concentration 8620 (unit uncertain)

SMILES	free radical clearance rate (achieved at a lower concentration than aesculin, thiodipropionic acid and their mixture)	Scavenging activity (%) [1] [%]	Scavenging activity (%) [2] [%]	Scavenging activity (%) [3] [%]	Scavenging activity (%) [4] [%]	Scavenging activity (%) [5] [%]	Scavenging activity (%) [6] [%]	Scavenging activity (%) [7] [%]
O=C(CCSCCC(=O)OCC1OC(Oc2cc3ccc(=O)oc3cc2O)C(O)C(O)C1O)OCC1OC(Oc2cc3ccc(=O)oc3cc2O)C(O)C(O)C1O (stereo not shown) [Aesculin thiodipropionic acid ester, aesculin thiodipropionic acid ester]	more than 90%	7.60	37.08	58.91	77.78	90.95	94.83	96.12
O=C(O)CCSCCC(=O)O [Thiodipropionic acid, 3,3′-thiodipropionic acid]		1.13	3.84	4.64	5.20	5.43	6.33	6.57
O=C1O[C@H]([C@@H](O)CO)C(O)=C1O [Vitamin C, vitamin C]		53.40	96.15	96.28	96.79	96.79	97.18	97.43
